Measured values taken from patent US12540120B2, “Herbicidal compounds” (SYNGENTA CROP PROTECTION AG, priority 2019, dated 2026).

What was measured:
Type in all cases: in vivo
[1] = test system: Echinochloa crus-galli (ECHCG); test: B5 Pre-Emergence Efficacy—Test 2; set-up: key: 5-point scale: 5=80-100%, 4=60-79%, 3=40-59%, 2=20-39%, 1=0-19% damage; conditions: 250 g/ha, evaluated after 13 days
How it was run: (§1)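 Scores are percentage plant damage on a five-point scale (5=80-100%; 4=60-79%; 3=40-59%; 2=20-39%; 1=0-19%), taken 13 days after a pre-emergence spray of 250 g/ha. Sowing preceded spraying by one day; glasshouse at 24/16 °C, 65% humidity.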

Setaria faberi (SETFA) [2] = test: B5 Pre-Emergence Efficacy—Test 2; set-up: key: 5-point scale: 5=80-100%, 4=60-79%, 3=40-59%, 2=20-39%, 1=0-19% damage; conditions: 250 g/ha, evaluated after 13 days
How it was run: as §1

[3] = test system: Ipomoea hederacea (IPOHE); test: B5 Pre-Emergence Efficacy—Test 2; set-up: key: 5-point scale: 5=80-100%, 4=60-79%, 3=40-59%, 2=20-39%, 1=0-19% damage; conditions: 250 g/ha, evaluated after 13 days
How it was run: as §1

Lolium perenne (LOLPE) [4] = test: B5 Pre-Emergence Efficacy—Test 2; set-up: key: 5-point scale: 5=80-100%, 4=60-79%, 3=40-59%, 2=20-39%, 1=0-19% damage; conditions: 250 g/ha, evaluated after 13 days
How it was run: as §1

[5] = test system: Amaranthus retoflexus (AMARE); test: B5 Pre-Emergence Efficacy—Test 2; conditions: 250 g/ha, evaluated after 13 days
How it was run: as §1

Solanum nigrum (SOLNI) [6] = test: B5 Pre-Emergence Efficacy—Test 2; conditions: 250 g/ha, evaluated after 13 days
How it was run: as §1

[7] = test system: Echinochloa crus-galli (ECHCG); test: B2 Post-Emergence Efficacy—Test 2; conditions: post-emergence application, 250 g/ha, evaluated after 13 days (Test 2)
How it was run: (§2)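 Post-emergence spray, 250 g/ha, acetone/water 50:50 + 0.5% Tween 20, on 8-day-old pot plants; glasshouse 24/16 °C, 14 h light, 65% RH, watered twice daily. Damage % read at 13 d, scored 1–5 (1=0-19%, 5=80-100%).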

[8] = test system: Amaranthus retoflexus (AMARE); test: B2 Post-Emergence Efficacy—Test 2; conditions: post-emergence application, 250 g/ha, evaluated after 13 days (Test 2)
How it was run: as §2

Setaria faberi (SETFA) [9] = test: B2 Post-Emergence Efficacy—Test 2; conditions: post-emergence application, 250 g/ha, evaluated after 13 days (Test 2)
How it was run: as §2

[10] = test system: Ipomoea hederacea (IPOHE); test: B2 Post-Emergence Efficacy—Test 2; conditions: post-emergence application, 250 g/ha, evaluated after 13 days (Test 2)
How it was run: as §2

Lolium perenne (LOLPE) [11] = test: B2 Post-Emergence Efficacy—Test 2; conditions: post-emergence application, 250 g/ha, evaluated after 13 days (Test 2)
How it was run: as §2

Solanum nigrum (SOLNI) [12] = test: B2 Post-Emergence Efficacy—Test 2; conditions: post-emergence application, 250 g/ha, evaluated after 13 days (Test 2)
How it was run: as §2

SMILES	Control of weed species after pre-emergence application, ECHCG (percentage damage, five point scale) [1]	Control of weed species after pre-emergence application, SETFA (percentage damage, five point scale) (Setaria faberi (SETFA) [2])	Control of weed species after pre-emergence application, IPOHE (percentage damage, five point scale) [3]	Control of weed species after pre-emergence application, LOLPE (percentage damage, five point scale) (Lolium perenne (LOLPE) [4])	Control of weed species after pre-emergence application, AMARE (percentage damage, five point scale) [5]	Control of weed species after pre-emergence application, SOLNI (percentage damage, five point scale) (Solanum nigrum (SOLNI) [6])	percentage damage caused to the plant, five point scale, ECHCG [7]	percentage damage caused to the plant, five point scale, AMARE [8]	percentage damage caused to the plant, five point scale, SETFA (Setaria faberi (SETFA) [9])	percentage damage caused to the plant, five point scale, IPOHE [10]	percentage damage caused to the plant, five point scale, LOLPE (Lolium perenne (LOLPE) [11])	percentage damage caused to the plant, five point scale, SOLNI (Solanum nigrum (SOLNI) [12])
Cc1nn(C)c(=O)c(-c2c(F)ccc(Cl)c2/C=C/c2cccc(C#N)c2)c1O [Compound A-2.030]	0	0	0	0	0	0	0	3 (3=40-59%)	0	4 (4=60-79%)	1 (1=0-19%)	4 (4=60-79%)
Cc1nn(C)c(=O)c(-c2c(F)ccc(Cl)c2CCc2ccc(O)cc2)c1O [Compound A-1.037]	2 (2=20-39%)	0	0	0	1 (1=0-19%)	2 (2=20-39%)	3 (3=40-59%)	1 (1=0-19%)	5 (5=80-100%)	5 (5=80-100%)	1 (1=0-19%)	5 (5=80-100%)
COC(=O)c1ccc(CCc2c(Cl)ccc(F)c2-c2c(O)c(C)nn(C)c2=O)cc1 [Compound A-1.041]	0	0	0	0	4 (4=60-79%)	0	1 (1=0-19%)	5 (5=80-100%)	4 (4=60-79%)	2 (2=20-39%)	1 (1=0-19%)	5 (5=80-100%)
